Source: ChEMBL document CHEMBL1201862, “PubChem BioAssay data set” (2004)
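48-hour exposure; five concentrations; linearly interpolated endpoints. Here, GI50 denotes the concentration required for 50% inhibition of growth.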 Calls of active or inactive are those of the source. Rule as the data show it: active = GI50 up to about 1.1 µM and inactive = higher.

Legend:
Assay in all cases: NCI anticancer screen, dose series, 48 h
[1] = system: SNB-75
[2] = system: SN12C
[3] = system: Malme-3M
[4] = system: T47D
[5] = system: MCF7
[6] = system: Hs-578T
[7] = system: HCC 2998
[8] = system: SF-268
[9] = system: MDA-N
[10] = system: COLO 205
[11] = system: SK-OV-3
[12] = system: OVCAR-4
[13] = system: 786-0
[14] = system: HT-29
[15] = system: UO-31
[16] = system: CAKI-1
[17] = system: IGROV-1
[18] = system: MDA-MB-435
[19] = system: HCT-15
[20] = system: HCT-116
[21] = system: SF-539
[22] = system: OVCAR-3
[23] = system: RXF 393
[24] = system: SR
[25] = system: SF-295
[26] = system: NCI-H522
[27] = system: K562
[28] = system: CCRF-CEM
[29] = system: ACHN
[30] = system: A549
[31] = system: DU-145
[32] = system: NCI-H23
[33] = system: MDA-MB-231
[34] = system: LOX IMVI
[35] = system: SK-MEL-28
[36] = system: HL-60
[37] = system: SK-MEL-5
[38] = system: RPMI-8226
[39] = system: NCI-H226
[40] = system: M14
[41] = system: SK-MEL-2
[42] = system: TK-10
[43] = system: UACC-62
[44] = system: SNB-19
[45] = system: PC-3
[46] = system: NCI/ADR-RES
[47] = system: BT-549
[48] = system: U-251
[49] = system: A498
[50] = system: OVCAR-8
[51] = system: KM12
[52] = system: HOP-62
[53] = system: MOLT-4
[54] = system: UACC-257
[55] = system: NCI-H460
[56] = system: OVCAR-5
[57] = system: EKVX
[58] = system: SW-620
[59] = system: HOP-92

SMILES: COc1ccc2[nH]c3c(C)c4ccnc(NCCCN(C)CCCNc5ccc([N+](=O)[O-])c6[nH]c7ccccc7c(=O)c56)c4c(C)c3c2c1
- GI50 [1]: 0.743 µM (active)
- GI50 [2]: 0.0524 µM (active)
- GI50 [3]: 0.285 µM (active)
- GI50 [4]: 0.815 µM (active)
- GI50 [5]: 0.0667 µM (active)
- GI50 [6]: 0.604 µM (active)
- GI50 [7]: 0.0178 µM (active)
- GI50 [8]: 0.52 µM (active)
- GI50 [9]: 0.372 µM (active)
- GI50 [10]: 0.0723 µM (active)
- GI50 [11]: 0.76 µM (active)
- GI50 [12]: 0.132 µM (active)
- GI50 [13]: 0.0244 µM (active)
- GI50 [14]: 0.00813 µM (active)
- GI50 [15]: 0.59 µM (active)
- GI50 [16]: 0.466 µM (active)
- GI50 [17]: 0.0291 µM (active)
- GI50 [18]: 0.471 µM (active)
- GI50 [19]: 0.0295 µM
- GI50 [20]: 0.0145 µM (active)
- GI50 [21]: 0.106 µM (active)
- GI50 [22]: 0.607 µM (active)
- GI50 [23]: 0.0396 µM (active)
- GI50 [24]: 0.0114 µM (active)
- GI50 [25]: 0.104 µM (active)
- GI50 [26]: 0.0235 µM (active)
- GI50 [27]: 0.00652 µM (active)
- GI50 [28]: 0.212 µM (active)
- GI50 [29]: 0.0207 µM (active)
- GI50 [30]: 0.0372 µM (active)
- GI50 [31]: 0.628 µM (active)
- GI50 [32]: 0.575 µM (active)
- GI50 [33]: 0.621 µM (active)
- GI50 [34]: 0.14 µM (active)
- GI50 [35]: 0.887 µM (active)
- GI50 [36]: 0.53 µM (active)
- GI50 [37]: 0.11 µM (active)
- GI50 [38]: 0.0826 µM (active)
- GI50 [39]: 0.421 µM (active)
- GI50 [40]: 0.422 µM (active)
- GI50 [41]: 0.731 µM (active)
- GI50 [42]: 0.018 µM (active)
- GI50 [43]: 0.82 µM (active)
- GI50 [44]: 0.284 µM (active)
- GI50 [45]: 0.426 µM (active)
- GI50 [46]: 0.592 µM (active)
- GI50 [47]: 0.678 µM (active)
- GI50 [48]: 0.0887 µM (active)
- GI50 [49]: 0.841 µM (active)
- GI50 [50]: 0.472 µM (active)
- GI50 [51]: 0.301 µM (active)
- GI50 [52]: 0.239 µM (active)
- GI50 [53]: 0.005 µM (active)
- GI50 [54]: 0.655 µM (active)
- GI50 [55]: 0.025 µM (active)
- GI50 [56]: 0.607 µM (active)
- GI50 [57]: 0.271 µM (active)
- GI50 [58]: 0.00811 µM (active)

SMILES: CC1=NN2CCC(=O)N=C2S1
- GI50 [1]: > 100 µM (inactive)
- GI50 [2]: > 100 µM (inactive)
- GI50 [3]: > 100 µM (inactive)
- GI50 [4]: > 100 µM (inactive)
- GI50 [5]: > 100 µM (inactive)
- GI50 [6]: > 100 µM (inactive)
- GI50 [8]: > 100 µM (inactive)
- GI50 [9]: > 100 µM (inactive)
- GI50 [10]: > 100 µM (inactive)
- GI50 [11]: > 100 µM (inactive)
- GI50 [12]: > 100 µM (inactive)
- GI50 [13]: > 100 µM (inactive)
- GI50 [59]: > 100 µM (inactive)
- GI50 [14]: > 100 µM (inactive)
- GI50 [16]: > 100 µM (inactive)
- GI50 [17]: > 100 µM (inactive)
- GI50 [18]: > 100 µM (inactive)
- GI50 [19]: > 100 µM
- GI50 [20]: > 100 µM (inactive)
- GI50 [21]: > 100 µM (inactive)
- GI50 [22]: > 100 µM (inactive)
- GI50 [23]: > 100 µM (inactive)
- GI50 [24]: > 100 µM (inactive)
- GI50 [25]: > 100 µM (inactive)
- GI50 [26]: > 100 µM (inactive)
- GI50 [27]: > 100 µM (inactive)
- GI50 [28]: > 100 µM (inactive)
- GI50 [29]: > 100 µM (inactive)
- GI50 [30]: > 100 µM (inactive)
- GI50 [31]: > 100 µM (inactive)
- GI50 [32]: > 100 µM (inactive)
- GI50 [33]: > 100 µM (inactive)
- GI50 [34]: > 100 µM (inactive)
- GI50 [35]: > 100 µM (inactive)
- GI50 [36]: > 100 µM (inactive)
- GI50 [37]: > 100 µM (inactive)
- GI50 [38]: > 100 µM (inactive)
- GI50 [39]: > 100 µM (inactive)
- GI50 [40]: > 100 µM (inactive)
- GI50 [41]: > 100 µM (inactive)
- GI50 [42]: > 100 µM (inactive)
- GI50 [43]: > 100 µM (inactive)
- GI50 [44]: > 100 µM (inactive)
- GI50 [45]: > 100 µM (inactive)
- GI50 [46]: > 100 µM (inactive)
- GI50 [47]: > 100 µM (inactive)
- GI50 [48]: > 100 µM (inactive)
- GI50 [50]: > 100 µM (inactive)
- GI50 [51]: > 100 µM (inactive)
- GI50 [52]: > 100 µM (inactive)
- GI50 [53]: > 100 µM (inactive)
- GI50 [54]: > 100 µM (inactive)
- GI50 [55]: > 100 µM (inactive)
- GI50 [56]: > 100 µM (inactive)
- GI50 [57]: > 100 µM (inactive)
- GI50 [58]: > 100 µM (inactive)

SMILES: COc1cc(-c2c3c(cc4c2OCO4)[C@@H](Nc2ccc4c(c2)Cc2cc(N[C@@H]5c6cc7c(cc6C(c6cc(OC)c(O)c(OC)c6)[C@H]6C(=O)OC[C@H]56)OCO7)ccc2-4)[C@H]2COC(=O)[C@@H]2C3)cc(OC)c1O (stereo partly specified)
- GI50 [1]: > 100 µM (inactive)
- GI50 [2]: > 100 µM (inactive)
- GI50 [3]: 14.8 µM (inactive)
- GI50 [4]: 98.2 µM (inactive)
- GI50 [5]: 27.9 µM (inactive)
- GI50 [6]: > 100 µM (inactive)
- GI50 [8]: 51.2 µM (inactive)
- GI50 [9]: 13.3 µM (inactive)
- GI50 [10]: 15.3 µM (inactive)
- GI50 [11]: 14.8 µM (inactive)
- GI50 [13]: 18.5 µM (inactive)
- GI50 [59]: 10.2 µM (inactive)
- GI50 [14]: 20 µM (inactive)
- GI50 [15]: 21.9 µM (inactive)
- GI50 [16]: 23.4 µM (inactive)
- GI50 [17]: 1.56 µM (inactive)
- GI50 [18]: 13.7 µM (inactive)
- GI50 [19]: 43.8 µM
- GI50 [20]: 21.8 µM (inactive)
- GI50 [21]: 0.977 µM (active)
- GI50 [22]: 55.5 µM (inactive)
- GI50 [24]: 11.6 µM (inactive)
- GI50 [25]: 20.3 µM (inactive)
- GI50 [28]: > 100 µM (inactive)
- GI50 [29]: 47.8 µM (inactive)
- GI50 [30]: 47.2 µM (inactive)
- GI50 [31]: 26.3 µM (inactive)
- GI50 [32]: 76.4 µM (inactive)
- GI50 [33]: 21 µM (inactive)
- GI50 [34]: 51.3 µM (inactive)
- GI50 [35]: 15.5 µM (inactive)
- GI50 [36]: > 100 µM (inactive)
- GI50 [37]: 18.5 µM (inactive)
- GI50 [38]: > 100 µM (inactive)
- GI50 [39]: 43.5 µM (inactive)
- GI50 [40]: 21.9 µM (inactive)
- GI50 [42]: 31 µM (inactive)
- GI50 [44]: 36 µM (inactive)
- GI50 [45]: 10.9 µM (inactive)
- GI50 [46]: 15.2 µM (inactive)
- GI50 [47]: 35.1 µM (inactive)
- GI50 [48]: 26.7 µM (inactive)
- GI50 [49]: 44.3 µM (inactive)
- GI50 [50]: 40.6 µM (inactive)
- GI50 [51]: 26.5 µM (inactive)
- GI50 [52]: 18.5 µM (inactive)
- GI50 [53]: > 100 µM (inactive)
- GI50 [54]: 48.8 µM (inactive)
- GI50 [55]: 17.3 µM (inactive)
- GI50 [56]: 27.8 µM (inactive)
- GI50 [57]: 74.6 µM (inactive)
- GI50 [58]: 49.8 µM (inactive)
